This note sets out measurements from PMC8550792, “Evolution of kinase polypharmacology across HSP90 drug discovery” (Cell Chemical Biology, 2021).

Test in all cases: biochemical
Type in all cases: biochemical

Assay [1] addresses T1, 382 unique human kinases (Homo sapiens, UniProt P16234).
T1 construct: purchased Reaction Biology (HotSpot contract assay)
As to conditions: kinase PDGFRa, compound 10 uM; for remaining activity at 10 µM: read-out: % Enzyme Activity (relative to DMSO controls).

Assay [2] deals with T2, 382 unique human kinases (Homo sapiens, UniProt P42679).
T2 construct: purchased Reaction Biology (HotSpot contract assay)
T2 sequence (P42679 1-507): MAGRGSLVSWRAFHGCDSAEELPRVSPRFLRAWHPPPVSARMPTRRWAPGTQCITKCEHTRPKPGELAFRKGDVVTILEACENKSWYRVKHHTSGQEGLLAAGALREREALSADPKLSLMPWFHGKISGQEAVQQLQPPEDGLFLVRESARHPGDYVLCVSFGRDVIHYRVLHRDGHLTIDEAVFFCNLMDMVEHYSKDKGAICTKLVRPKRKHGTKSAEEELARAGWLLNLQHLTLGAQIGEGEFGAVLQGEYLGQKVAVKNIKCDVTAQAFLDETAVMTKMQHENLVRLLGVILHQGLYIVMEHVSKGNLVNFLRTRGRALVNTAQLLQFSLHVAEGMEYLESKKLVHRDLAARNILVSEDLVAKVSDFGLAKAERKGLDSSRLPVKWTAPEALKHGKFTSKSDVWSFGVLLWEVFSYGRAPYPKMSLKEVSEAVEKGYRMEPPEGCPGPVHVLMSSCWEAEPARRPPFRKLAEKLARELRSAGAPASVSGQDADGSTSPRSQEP
The note with it: kinase CTK/MATK, compound 10 uM; for remaining activity at 10 µM: read-out: % Enzyme Activity (relative to DMSO controls).

In assay [3] the target is T3, 382 unique human kinases (Homo sapiens, UniProt Q06187, E41K).
T3 construct: purchased Reaction Biology (HotSpot contract assay)
T3 sequence (Q06187 whole entry E41K): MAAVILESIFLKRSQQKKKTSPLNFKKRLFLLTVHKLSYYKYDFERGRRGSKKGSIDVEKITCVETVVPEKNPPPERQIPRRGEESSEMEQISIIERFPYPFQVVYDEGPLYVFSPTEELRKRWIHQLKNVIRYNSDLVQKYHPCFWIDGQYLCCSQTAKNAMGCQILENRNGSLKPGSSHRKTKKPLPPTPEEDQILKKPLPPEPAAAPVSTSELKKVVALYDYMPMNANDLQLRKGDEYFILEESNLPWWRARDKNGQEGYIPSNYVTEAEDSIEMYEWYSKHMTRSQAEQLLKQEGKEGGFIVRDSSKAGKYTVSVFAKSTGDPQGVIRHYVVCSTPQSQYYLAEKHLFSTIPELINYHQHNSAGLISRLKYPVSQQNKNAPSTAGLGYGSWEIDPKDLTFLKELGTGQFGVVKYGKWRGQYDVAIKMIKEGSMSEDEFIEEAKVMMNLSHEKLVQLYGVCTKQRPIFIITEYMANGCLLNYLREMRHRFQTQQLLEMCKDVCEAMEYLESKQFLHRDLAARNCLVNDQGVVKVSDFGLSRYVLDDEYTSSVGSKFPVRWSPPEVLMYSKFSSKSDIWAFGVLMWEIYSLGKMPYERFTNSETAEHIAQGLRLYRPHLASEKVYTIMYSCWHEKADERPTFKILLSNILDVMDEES
As to conditions: BTK (E41K), 10 uM; for remaining activity at 10 µM: read-out: % Enzyme Activity (relative to DMSO controls).

In assay [4] the target is T4, 382 unique human kinases (Homo sapiens, UniProt Q13627).
T4 construct: purchased Reaction Biology (HotSpot contract assay)
The note with it: DYRK1/DYRK1A, 10 uM; for remaining activity at 10 µM: read-out: % Enzyme Activity (relative to DMSO controls).

Assay [5] has as its target T5, 382 unique human kinases (Homo sapiens, UniProt Q6P2M8).
T5 construct: purchased Reaction Biology (HotSpot contract assay)
As to conditions: kinase CAMK1b, compound 10 uM; for remaining activity at 10 µM: read-out: % Enzyme Activity (relative to DMSO controls).

Assay [6] addresses T6, 382 unique human kinases (Homo sapiens, UniProt Q8IU85).
T6 construct: purchased Reaction Biology (HotSpot contract assay)
The note with it: kinase CAMK1d, compound 10 uM; for remaining activity at 10 µM: read-out: % Enzyme Activity (relative to DMSO controls).

Assay [7] concerns the target T7, 382 unique human kinases (Homo sapiens, UniProt Q8TF76).
T7 construct: purchased Reaction Biology (HotSpot contract assay)
T7 sequence (Q8TF76 1-798): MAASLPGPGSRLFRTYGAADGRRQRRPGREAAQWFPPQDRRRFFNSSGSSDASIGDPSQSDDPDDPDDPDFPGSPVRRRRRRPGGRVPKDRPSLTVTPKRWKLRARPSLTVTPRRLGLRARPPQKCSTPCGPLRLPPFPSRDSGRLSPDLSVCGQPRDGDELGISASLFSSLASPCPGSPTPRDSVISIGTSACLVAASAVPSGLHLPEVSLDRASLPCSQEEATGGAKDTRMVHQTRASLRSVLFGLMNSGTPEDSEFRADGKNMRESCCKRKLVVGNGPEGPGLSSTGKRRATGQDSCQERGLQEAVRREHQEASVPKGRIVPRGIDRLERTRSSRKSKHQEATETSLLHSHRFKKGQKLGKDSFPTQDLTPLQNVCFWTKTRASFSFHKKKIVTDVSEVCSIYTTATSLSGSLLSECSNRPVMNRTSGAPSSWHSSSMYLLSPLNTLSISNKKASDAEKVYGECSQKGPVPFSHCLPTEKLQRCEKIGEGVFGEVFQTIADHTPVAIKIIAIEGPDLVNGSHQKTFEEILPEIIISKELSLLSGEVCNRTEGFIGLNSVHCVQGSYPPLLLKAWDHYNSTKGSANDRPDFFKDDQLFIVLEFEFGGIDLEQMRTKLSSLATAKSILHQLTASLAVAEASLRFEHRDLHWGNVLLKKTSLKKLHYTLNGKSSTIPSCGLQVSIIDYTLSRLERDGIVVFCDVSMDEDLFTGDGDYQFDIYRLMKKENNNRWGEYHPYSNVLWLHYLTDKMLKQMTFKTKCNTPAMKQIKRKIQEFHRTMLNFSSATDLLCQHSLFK
The note with it: Haspin, 10 uM; for remaining activity at 10 µM: read-out: % Enzyme Activity (relative to DMSO controls).

Assay [8] has as its target T8, 382 unique human kinases (Homo sapiens, UniProt Q9NYY3).
T8 construct: purchased Reaction Biology (HotSpot contract assay)
The note with it: kinase PLK2, compound 10 uM; for remaining activity at 10 µM: read-out: % Enzyme Activity (relative to DMSO controls).

Assay [9] has as its target T9, 382 unique human kinases (Homo sapiens, UniProt Q15118).
T9 construct: purchased Reaction Biology (HotSpot contract assay)
The note with it: PDK1/PDHK1, [ATP] 50 µM, compound 10 uM; for remaining activity at 10 µM: read-out: % Enzyme Activity (relative to DMSO controls).

Assay [10] concerns the target T10, 382 unique human kinases (Homo sapiens, UniProt Q6VAB6).
T10 sequence (Q6VAB6 1-950): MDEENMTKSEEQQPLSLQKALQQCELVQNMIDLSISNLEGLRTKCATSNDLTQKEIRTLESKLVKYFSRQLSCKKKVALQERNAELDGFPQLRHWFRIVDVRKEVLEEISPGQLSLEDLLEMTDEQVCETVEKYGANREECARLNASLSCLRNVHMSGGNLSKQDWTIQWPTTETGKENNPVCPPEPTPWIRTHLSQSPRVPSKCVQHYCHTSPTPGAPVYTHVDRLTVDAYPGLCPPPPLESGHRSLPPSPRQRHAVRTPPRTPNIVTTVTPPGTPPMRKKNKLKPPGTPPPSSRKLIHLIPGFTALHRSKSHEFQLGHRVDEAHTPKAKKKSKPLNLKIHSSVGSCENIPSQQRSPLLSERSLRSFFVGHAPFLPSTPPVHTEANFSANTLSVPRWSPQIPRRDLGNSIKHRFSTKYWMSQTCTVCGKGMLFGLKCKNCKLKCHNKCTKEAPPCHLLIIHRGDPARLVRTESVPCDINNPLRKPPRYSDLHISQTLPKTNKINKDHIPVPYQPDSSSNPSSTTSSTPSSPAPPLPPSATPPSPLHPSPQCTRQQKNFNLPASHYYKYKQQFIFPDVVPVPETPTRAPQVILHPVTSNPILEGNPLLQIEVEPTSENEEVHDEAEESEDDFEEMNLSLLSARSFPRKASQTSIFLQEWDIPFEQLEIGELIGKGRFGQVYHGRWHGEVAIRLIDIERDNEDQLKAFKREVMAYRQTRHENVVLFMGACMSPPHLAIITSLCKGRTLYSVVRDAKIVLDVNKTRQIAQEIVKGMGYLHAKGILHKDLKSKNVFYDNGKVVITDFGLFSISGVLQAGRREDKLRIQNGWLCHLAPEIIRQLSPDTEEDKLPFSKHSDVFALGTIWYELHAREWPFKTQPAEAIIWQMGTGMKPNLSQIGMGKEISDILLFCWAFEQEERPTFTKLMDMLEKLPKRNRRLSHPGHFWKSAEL
The note with it: KSR2, 10 uM; for remaining activity at 10 µM: read-out: % Enzyme Activity (relative to DMSO controls).

T8 sequence (Q9NYY3 whole entry): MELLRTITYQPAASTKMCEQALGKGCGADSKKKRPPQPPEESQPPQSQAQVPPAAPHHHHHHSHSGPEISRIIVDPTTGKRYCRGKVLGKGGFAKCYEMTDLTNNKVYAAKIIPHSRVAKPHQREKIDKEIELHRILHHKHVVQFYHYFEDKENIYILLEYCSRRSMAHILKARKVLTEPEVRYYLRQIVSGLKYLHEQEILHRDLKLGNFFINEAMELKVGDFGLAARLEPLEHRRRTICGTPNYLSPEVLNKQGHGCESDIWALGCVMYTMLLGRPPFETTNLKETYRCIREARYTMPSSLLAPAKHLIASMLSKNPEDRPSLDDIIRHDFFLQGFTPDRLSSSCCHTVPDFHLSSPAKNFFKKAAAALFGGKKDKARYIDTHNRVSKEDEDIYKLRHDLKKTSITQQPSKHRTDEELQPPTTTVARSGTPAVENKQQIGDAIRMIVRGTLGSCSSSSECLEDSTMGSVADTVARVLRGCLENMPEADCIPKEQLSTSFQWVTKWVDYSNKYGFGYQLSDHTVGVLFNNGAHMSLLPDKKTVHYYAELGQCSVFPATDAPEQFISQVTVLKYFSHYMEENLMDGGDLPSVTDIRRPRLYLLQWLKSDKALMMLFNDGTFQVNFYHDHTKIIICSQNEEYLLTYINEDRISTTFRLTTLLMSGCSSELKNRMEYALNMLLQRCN
T9 sequence (Q15118 29-436): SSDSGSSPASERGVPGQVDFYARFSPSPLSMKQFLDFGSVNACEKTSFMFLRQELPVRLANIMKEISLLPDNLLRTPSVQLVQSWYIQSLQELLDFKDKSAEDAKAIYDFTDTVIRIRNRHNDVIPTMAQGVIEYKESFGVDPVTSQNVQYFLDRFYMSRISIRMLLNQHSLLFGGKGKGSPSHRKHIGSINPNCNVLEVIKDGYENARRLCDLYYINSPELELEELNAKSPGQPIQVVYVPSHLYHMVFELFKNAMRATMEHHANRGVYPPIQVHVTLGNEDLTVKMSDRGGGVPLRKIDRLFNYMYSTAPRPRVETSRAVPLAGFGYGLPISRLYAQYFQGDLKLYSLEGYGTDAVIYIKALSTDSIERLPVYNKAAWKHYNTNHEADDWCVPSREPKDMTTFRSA
T5 sequence (Q6P2M8 whole entry): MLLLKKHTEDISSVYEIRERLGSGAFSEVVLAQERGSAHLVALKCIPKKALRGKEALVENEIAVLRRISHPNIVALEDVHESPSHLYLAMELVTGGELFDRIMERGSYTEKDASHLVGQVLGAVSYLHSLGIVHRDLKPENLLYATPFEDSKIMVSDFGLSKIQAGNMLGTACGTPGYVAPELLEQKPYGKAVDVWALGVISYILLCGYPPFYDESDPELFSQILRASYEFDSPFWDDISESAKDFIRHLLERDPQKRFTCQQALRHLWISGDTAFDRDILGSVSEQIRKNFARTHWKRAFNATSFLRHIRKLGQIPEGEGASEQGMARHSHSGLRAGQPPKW
T1 sequence (P16234 24-1089): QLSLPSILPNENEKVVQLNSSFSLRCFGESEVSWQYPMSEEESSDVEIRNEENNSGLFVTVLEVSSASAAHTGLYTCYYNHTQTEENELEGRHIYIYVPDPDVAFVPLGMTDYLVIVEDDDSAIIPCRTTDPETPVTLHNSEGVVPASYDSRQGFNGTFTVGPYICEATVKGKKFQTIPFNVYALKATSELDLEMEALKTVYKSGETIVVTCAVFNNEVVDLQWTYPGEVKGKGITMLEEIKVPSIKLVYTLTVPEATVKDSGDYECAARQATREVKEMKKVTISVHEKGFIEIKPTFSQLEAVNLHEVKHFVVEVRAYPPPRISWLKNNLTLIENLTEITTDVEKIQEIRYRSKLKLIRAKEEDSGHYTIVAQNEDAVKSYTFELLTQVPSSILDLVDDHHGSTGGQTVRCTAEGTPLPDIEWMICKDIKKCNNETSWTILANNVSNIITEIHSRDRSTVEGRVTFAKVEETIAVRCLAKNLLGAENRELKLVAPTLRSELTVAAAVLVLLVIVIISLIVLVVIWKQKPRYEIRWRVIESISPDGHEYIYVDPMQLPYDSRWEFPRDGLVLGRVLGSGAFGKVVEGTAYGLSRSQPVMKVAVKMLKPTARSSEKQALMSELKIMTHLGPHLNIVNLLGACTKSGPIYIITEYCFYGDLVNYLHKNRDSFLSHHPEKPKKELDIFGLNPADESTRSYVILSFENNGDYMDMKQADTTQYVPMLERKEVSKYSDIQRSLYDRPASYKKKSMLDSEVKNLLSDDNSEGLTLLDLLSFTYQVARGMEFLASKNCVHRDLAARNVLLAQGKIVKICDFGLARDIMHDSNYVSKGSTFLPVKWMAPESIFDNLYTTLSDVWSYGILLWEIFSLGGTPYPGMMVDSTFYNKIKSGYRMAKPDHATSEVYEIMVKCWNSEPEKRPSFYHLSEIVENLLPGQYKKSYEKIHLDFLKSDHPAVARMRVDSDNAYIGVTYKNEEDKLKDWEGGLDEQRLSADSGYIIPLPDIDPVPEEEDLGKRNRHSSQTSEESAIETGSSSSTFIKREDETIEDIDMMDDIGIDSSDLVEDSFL
T6 sequence (Q8IU85 whole entry): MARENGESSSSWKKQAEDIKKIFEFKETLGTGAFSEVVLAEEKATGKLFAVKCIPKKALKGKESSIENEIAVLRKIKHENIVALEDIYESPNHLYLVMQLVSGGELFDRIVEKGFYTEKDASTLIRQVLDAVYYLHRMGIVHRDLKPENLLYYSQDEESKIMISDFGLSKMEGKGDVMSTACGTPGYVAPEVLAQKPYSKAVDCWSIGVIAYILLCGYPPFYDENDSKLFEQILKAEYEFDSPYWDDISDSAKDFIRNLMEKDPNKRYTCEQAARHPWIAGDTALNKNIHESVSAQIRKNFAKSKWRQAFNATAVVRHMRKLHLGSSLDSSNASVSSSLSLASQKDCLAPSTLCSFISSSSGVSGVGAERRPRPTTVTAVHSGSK

On to `CC(C)c1cc(-c2n[nH]c(=O)n2-c2ccc3c(ccn3C)c2)c(O)cc1O` [Ganetespib (STA9090)], for which the remaining activity at 10 µM on 382 unique human kinases [1] turned out to be 82.6%; at 382 unique human kinases [2], 80%; on 382 unique human kinases [3], 65.4%; at 382 unique human kinases [4] it was 69.6%; at 382 unique human kinases [5], 83.4%; at 382 unique human kinases [6] it was 86.2%. Besides, the remaining activity at 10 µM at 382 unique human kinases [7] amounted to 75.3%; at 382 unique human kinases [8] it was 86.1%.
On to `CC(C)c1cc(-c2n[nH]c(=O)n2-c2ccc3c(ccn3C)c2)c(O)cc1O` [Ganetespib], for which the figures for the remaining activity at 10 µM at 382 unique human kinases [9] and on 382 unique human kinases [10] were 54.4% and 94.1%, respectively.
Turning to `CCNC(=O)c1noc(-c2cc(C(C)C)c(O)cc2O)c1-c1ccc(CN2CCOCC2)cc1` [Luminespib (AUY-922)], the “% Enzyme Activity (relative to DMSO controls)” value on 382 unique human kinases [1] is on record as 83.27%; at 382 unique human kinases [2] it was 80.99%; at 382 unique human kinases [3] it was 96.25%; on 382 unique human kinases [4] it was 94.59%; on 382 unique human kinases [5] it was 91.57%; at 382 unique human kinases [6] it was 100.18%. Moreover, the “% Enzyme Activity (relative to DMSO controls)” value at 382 unique human kinases [7] was found to be 89.64%; on 382 unique human kinases [8], 105.08%. The remaining activity at 10 µM on 382 unique human kinases [1] was found to be 85.4%; on 382 unique human kinases [2], 83.5%; at 382 unique human kinases [3] it was 96.8%; at 382 unique human kinases [4] it was 97.2%; at 382 unique human kinases [5], 94.9%; on 382 unique human kinases [6], 101%. Also, the remaining activity at 10 µM was 93% on 382 unique human kinases [7] and 106% at 382 unique human kinases [8].
For the molecule `CCNC(=O)c1noc(-c2cc(C(C)C)c(O)cc2O)c1-c1ccc(CN2CCOCC2)cc1` [Luminespib], on 382 unique human kinases [9], the “% Enzyme Activity (relative to DMSO controls)” value stood at 56.21% and the remaining activity at 10 µM turned out to be 60%. On 382 unique human kinases [10], the “% Enzyme Activity (relative to DMSO controls)” value amounted to 96.02% and the remaining activity at 10 µM is 96.3%.
